The target of one experiment is T1, MAP4K1 (HPK1) (Homo sapiens, UniProt Q92918).
T1 construct: purchased Invitrogen
Description: Inhibition of MAP4K1 biochemical enzymatic activity (EZReader 2 electrophoretic mobility shift). The settings on record: HPK1 (Invitrogen), S6K2tide 1.5 μM, 120 min; ATP 26 μM or 1000 μM (not given). In a few lines:
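Untreated enzyme (0.1-15 nM) was incubated with 1.5 μM fluorescent peptide and 20-1000 μM ATP (apparent Km or 1 mM) in HEPES pH 7.5, MgCl2, DTT, Brij 35 at 25° C. for 60-180 min, with 1% DMSO and a 10-point 4-fold compound series. After an EDTA stop, product/substrate peptide peak ratio was read by mobility shift.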

The subject of experiment [1] is Primary T Cell (expanded CD3+ T cells). The experiment in a line: T cell enhancement of cytokines: IL2 measurement (HTRF) in stimulated expanded CD3+ T cells. The settings on record: plate-bound anti-CD3 and soluble anti-CD28, 24 h, IL2 by HTRF, read-out: IL-2 Primary T Cell EC50. The class given is cell-based, human. The method, then:
T cells are isolated from whole blood of healthy donors by immunomagnetic negative selection following manufacture's protocol (StemCell Technologies, human T cell isolation kit). Purity of isolated cells is assessed by flow cytometry and yields 95-98% CD3^+ T cells. For expansion of T cells, 1×10^6 cells/well are plated in serum free cell expansion media (ThermoFisher) containing 30 U of recombinant human IL2 (R&D) and stimulated with 25 ul of CD3/CD28 beads (Invitrogen) in 24 well plates for 3-4 days. T cells are then expanded in 175 cm flasks and maintained at a cell density of 1 to 2.5×10^6 cells/ml days by addition of ⅔ of fresh media every 2-3 days. After 10-14 days, cells are frozen in BamBanker freezing media (Thermo) and stored in liquid nitrogen.
For IL2 measurement, expanded CD3^+ T cells are dispensed at 100K cells/well (cultured in X-VIVO 10 Serum-free media) and are stimulated with plate-bound anti-CD3 and soluble anti-CD28 in the presence of vehicle or compound of the disclosure at various concentrations for 24 h. As outlined in the manufacturer's protocol (Cisbio), 16 μL of conditioned media is transferred to a white 384-well low volume plate. Following a 24 h incubation with the anti-IL2 antibodies, the homogenous time resolved fluorescence (HTRF) is measured.

In patent US12202844B2, “MAP4K1 inhibitors” (Blueprint Medicines Corporation, priority 2021, dated 2025) one finds IC50 and EC50 data, which are given here for 14 compounds.

Like-named read-outs stand apart in the source and are kept apart here.

T1 sequence (Q92918 whole entry): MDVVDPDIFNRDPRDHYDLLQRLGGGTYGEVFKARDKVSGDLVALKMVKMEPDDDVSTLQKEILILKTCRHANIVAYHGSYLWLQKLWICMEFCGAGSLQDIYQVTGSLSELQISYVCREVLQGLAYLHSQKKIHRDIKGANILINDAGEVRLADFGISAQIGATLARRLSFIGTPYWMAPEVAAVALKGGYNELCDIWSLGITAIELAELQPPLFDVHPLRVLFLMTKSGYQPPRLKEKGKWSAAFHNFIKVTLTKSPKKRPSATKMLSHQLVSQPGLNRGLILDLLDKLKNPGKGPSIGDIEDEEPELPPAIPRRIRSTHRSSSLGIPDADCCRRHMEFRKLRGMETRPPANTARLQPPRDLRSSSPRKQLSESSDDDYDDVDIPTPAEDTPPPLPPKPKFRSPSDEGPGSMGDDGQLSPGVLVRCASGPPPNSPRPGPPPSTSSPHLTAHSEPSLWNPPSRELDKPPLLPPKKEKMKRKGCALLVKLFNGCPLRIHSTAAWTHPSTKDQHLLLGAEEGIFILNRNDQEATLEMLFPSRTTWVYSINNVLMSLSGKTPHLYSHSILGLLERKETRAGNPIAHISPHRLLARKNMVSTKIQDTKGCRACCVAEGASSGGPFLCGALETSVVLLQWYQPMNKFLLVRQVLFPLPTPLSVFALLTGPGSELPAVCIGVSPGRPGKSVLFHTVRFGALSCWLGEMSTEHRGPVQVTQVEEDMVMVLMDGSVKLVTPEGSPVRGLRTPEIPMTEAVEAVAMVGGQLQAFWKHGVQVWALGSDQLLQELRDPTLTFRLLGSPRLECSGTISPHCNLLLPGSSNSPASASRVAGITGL

In the case of `C[C@@H]1c2nc(Nc3cc4c(C(N)C5CC5)cnc(O[C@H]5C[C@@H](S(C)(=O)=O)C5)c4cn3)ccc2C(=O)OC1(C)C` (single isomer, unassigned) [Compound 62, (R)-2-((5-((S or R)-Amino(cyclopropyl)methyl)-8-(cis-3-(methylsulfonyl)cyclobutoxy)-2,7-naphthyridin-3-yl)amino)-7,7,8-trimethyl-7,8-dihydro-5H-pyrano[4,3-b]pyridin-5-one], the concentration for half-maximal inhibition (IC50) at MAP4K1 (HPK1) came out at 0.33 nM. Further, the EC50 in experiment [1] (Homo sapiens, T-cell, 24 h) worked out at 76 nM.

As for `C[C@H](C[C@@H](C)S(C)(=O)=O)Oc1ncc(C(C)(C)N)c2cc(Nc3ccc4c(n3)C3(CC3)[C@@H](C)OC4=O)ncc12` (single isomer, unassigned) [Compound 65], the IC50 on MAP4K1 (HPK1) is 0.2 nM. The EC50 in experiment [1] (Homo sapiens, T-cell, 24 h) was determined as 11 nM.

Turning to `CC[C@@](C)(N)c1cnc(O[C@H](C)CCS(C)(=O)=O)c2cnc(Nc3ccc4c(n3)C3(CC3)[C@@H](C)OC4=O)cc12` (single isomer, unassigned) [Compound 66], the IC50 at MAP4K1 (HPK1) worked out at 0.24 nM. Also, in experiment [1] (Homo sapiens, T-cell, 24 h), the EC50 was found to be 21 nM.

`C[C@H]1[C@H](Oc2ncc(C(C)(C)N)c3cc(Nc4ccc5c(n4)[C@@H](C)C(C)(C)OC5=O)ncc23)C[C@@H]1S(C)(=O)=O` (single isomer, unassigned) [Compound 69]: the IC50 on MAP4K1 (HPK1) was 0.1 nM. In experiment [1] (Homo sapiens, T-cell, 24 h), the EC50 is 15 nM.

For `CC[C@@H](N)c1cnc(O[C@H]2C[C@@H](S(=O)(=O)CC)C2)c2cnc(Nc3ccc4c(n3)[C@@H](C)C(C)(C)OC4=O)cc12` (single isomer, unassigned) [Compound 74], at MAP4K1 (HPK1), the IC50 worked out at 0.33 nM. In addition, the 50% effective concentration (EC50) in experiment [1] (Homo sapiens, T-cell, 24 h) worked out at 51 nM.

As for `C[C@@H]1c2nc(Nc3cc4c(C(C)(C)N)cnc(O[C@H]5C[C@H](CS(C)(=O)=O)C5)c4cn3)ccc2C(=O)OC1(C)C` (single isomer, unassigned) [Compound 75], the IC50 on MAP4K1 (HPK1) is 0.07 nM. In addition, the EC50 in experiment [1] (Homo sapiens, T-cell, 24 h) came out at 28 nM.

Regarding `C[C@@H]1c2nc(Nc3cc4c(C(C)(C)N)cnc(O[C@H]5C[C@@H](CS(C)(=O)=O)C5)c4cn3)ccc2C(=O)OC1(C)C` (single isomer, unassigned) [Compound 76], the IC50 on MAP4K1 (HPK1) amounted to 0.07 nM. The EC50 in experiment [1] (Homo sapiens, T-cell, 24 h) was found to be 25 nM.

For the compound `CCC[C@@H](N)c1cnc(O[C@H]2C[C@@H](S(C)(=O)=O)C2)c2cnc(Nc3ccc4c(n3)[C@@H](C)C(C)(C)OC4=O)cc12` (single isomer, unassigned) [Compound 79], the IC50 on MAP4K1 (HPK1) was 0.34 nM. The 50% effective concentration (EC50) in experiment [1] (Homo sapiens, T-cell, 24 h) came to 94 nM.

On to `CCC[C@@](C)(N)c1cnc(O[C@H](C)CCS(C)(=O)=O)c2cnc(Nc3ccc4c(n3)CC(C)(C)OC4=O)cc12` (single isomer, unassigned) [Compound 85], for which, at MAP4K1 (HPK1), the IC50 was found to be 0.37 nM. Besides, in experiment [1] (Homo sapiens, T-cell, 24 h), the EC50 turned out to be 85 nM.

On to `CCC[C@@](C)(N)c1cnc(O[C@H](C)CCS(C)(=O)=O)c2cnc(Nc3ccc4c(n3)[C@@H](C)[C@H](C)OC4=O)cc12` (single isomer, unassigned) [Compound 86], for which the IC50 on MAP4K1 (HPK1) worked out at 0.2 nM. The 50% effective concentration (EC50) in experiment [1] (Homo sapiens, T-cell, 24 h) amounted to 26 nM.

Turning to `CC[C@@](C)(N)c1cnc(O[C@H](C)CCS(=O)(=O)CC)c2cnc(Nc3ccc4c(n3)[C@@H](C)[C@H](C)OC4=O)cc12` (single isomer, unassigned) [Compound 92], the IC50 at MAP4K1 (HPK1) was found to be 0.14 nM. For the same compound, the EC50 in experiment [1] (Homo sapiens, T-cell, 24 h) was found to be 15 nM.

Take `CC[C@@](C)(N)c1cnc(O[C@H](C)CCS(=O)(=O)CC)c2cnc(Nc3ccc4c(n3)[C@@H](C)[C@H](C)OC4=O)cc12` (single isomer, unassigned) [Compound 93]: the IC50 on MAP4K1 (HPK1) was found to be 0.19 nM. The 50% effective concentration (EC50) in experiment [1] is 9 nM.

Regarding `CCS(=O)(=O)CC[C@@H](C)Oc1ncc(C(C)(C)N)c2cc(Nc3ccc4c(n3)[C@@H](C)C(C)(C)OC4=O)ncc12` (single isomer, unassigned) [Compound 98], the IC50 at MAP4K1 (HPK1) was 0.23 nM. The EC50 in experiment [1] (Homo sapiens, T-cell, 24 h) was 67 nM.

With `CCS(=O)(=O)CC[C@@H](C)Oc1ncc(C(C)(C)N)c2cc(Nc3ccc4c(n3)[C@@H](C)C(C)(C)OC4=O)ncc12` (single isomer, unassigned) [Compound 99], the IC50 at MAP4K1 (HPK1) stood at 0.39 nM. The EC50 in experiment [1] turned out to be 72 nM.
